Measurements taken from article PMC12655172, “Borylated 5-Membered Ring Iminosugars: Synthesis and Biological Evaluation for Glycosidase Inhibition and Anticancer Properties for Application in Boron Neutron Capture Therapy (BNCT)—Part 2” (Pharmaceuticals, 2025).
Like-named read-outs stand apart in the source and are kept apart here.

Assays:
A431 (skin carcinoma) = test: Cancer screening, MTT growth inhibition; type: cell-based; conditions: for inhibition at 25 µM: A-431, 25 µM of drug, read-out: DOSE SCREEN percentage (%) cell growth inhibition A431 Skin; for GI50: read-out: DOSE RESPONSE GI50 A431 Skin; for DOSE SCREEN percentage (%) cell growth inhibition A431 Skin: 25 µM of drug
Experimental: (§1) For Table 4, all test agents were prepared as stock solutions ([…]) in dimethyl sulfoxide (DMSO) and stored at −20 °C. Cell lines used in the study included HT29 (colorectal carcinoma), A2780 (ovarian carcinoma), H460 (lung carcinoma), A431 (skin carcinoma), MiaPaCa-2 (pancreatic carcinoma), and SMA560 (spontaneous murine astrocytoma), together with MCF10A (non-tumour derived normal breast cell line). Cell line sources: the HT29, H460, and MiaPaCa-2, together with MCF10A were purchased from ATCC. The A2780 and A431 were purchased from the European Collection of Cell Culture (ECACC). All cell lines were incubated in a humidified atmosphere 5% CO2 at 37 °C. The cancer cell lines were maintained in Dulbecco’s modified Eagle’s medium (DMEM; Sigma, Truganina, Australia) supplemented with foetal bovine serum (10%), sodium pyruvate ([…]), penicillin (100 IUmL^−1), streptomycin (100 µg mL^−1), and L-glutamine ([…]).
(§2) Growth inhibition was determined by plating cells in duplicate in medium (100 µL) at a density of 2500–4000 cells per well in 96-well plates. On day 0 (24 h after plating), when the cells are in logarithmic growth, medium (100 µL) with or without the test agent was added to each well. […] Each data point is the mean ± the standard error of the mean (SEM) calculated from three replicates which were performed on separate occasions and separate cell line passages.

[1] = test system: HT29 (colorectal carcinoma); test: Cancer screening, MTT growth inhibition; type: cell-based; conditions: for inhibition at 25 µM: HT-29, 25 µM of drug, read-out: DOSE SCREEN percentage (%) cell growth inhibition HT29 Colon; for GI50: read-out: DOSE RESPONSE GI50 HT29 Colon; for DOSE SCREEN percentage (%) cell growth inhibition HT29 Colon: 25 µM of drug
Experimental: as §1, §2

[2] = test system: MIA-Pa-Ca2 (pancreatic carcinoma); test: Cancer screening, MTT growth inhibition; type: cell-based; conditions: for inhibition at 25 µM: MIA PaCa-2, 25 µM of drug, read-out: DOSE SCREEN percentage (%) cell growth inhibition MIA-Pa-Ca2 Pancreatic; for GI50: read-out: DOSE RESPONSE GI50 MIA-Pa-Ca2 Pancreatic; for DOSE SCREEN percentage (%) cell growth inhibition MIA-Pa-Ca2 Pancreatic: 25 µM of drug
Experimental: as §1, §2

[3] = test system: A2780 (ovarian carcinoma); test: Cancer screening, MTT growth inhibition; type: cell-based; conditions: for inhibition at 25 µM: A2780, 25 µM of drug, read-out: DOSE SCREEN percentage (%) cell growth inhibition A2780 Ovarian; for GI50: read-out: DOSE RESPONSE GI50 A2780 Ovarian; for DOSE SCREEN percentage (%) cell growth inhibition A2780 Ovarian: 25 µM of drug
Experimental: as §1, §2

H460 (lung carcinoma) = test: Cancer screening, MTT growth inhibition; type: cell-based; conditions: for inhibition at 25 µM: NCI-H460, 25 µM of drug, read-out: DOSE SCREEN percentage (%) cell growth inhibition H460 Lung; for GI50: read-out: DOSE RESPONSE GI50 H460 Lung; for DOSE SCREEN percentage (%) cell growth inhibition H460 Lung: 25 µM of drug
Experimental: as §1, §2

β-D-glucosidase (almond) = test: Glycosidase inhibition (Table 2 panel); type: biochemical
Description: (§3) The enzymes α-D-glucosidase (yeast), β-D-glucosidases (almond, bovine liver), α-D-galactosidase (coffee beans), β-D-galactosidase (bovine liver), α-D-mannosidase (Jack bean), β-D-mannosidase (snail), α-L-rhamnosidase (P. decumbens), α-L-fucosidase (bovine kidney), trehalase (porcine kidney), β-D-glucuronidases (E. coli, bovine liver), amyloglucosidase (A. niger), para-nitrophenyl glycosides, and various disaccharides were purchased from Sigma-Aldrich Co (St. Louis, MO, USA).
(§4) Brush border membranes were prepared from the rat small intestine according to the method of Kessler et al., and were assayed at pH 6.8 for rat intestinal maltase using maltose. For rat intestinal maltase, porcine kidney trehalase, and A. niger amyloglucosidase activities, the reaction mixture contained maltose (25 μM) and the appropriate amount of enzyme, and the incubations were performed for 10–30 min at 37 °C. The reaction was stopped by heating at 100 °C for 3 min. After centrifugation (600 g; 10 min), the resulting reaction mixture was added to the Glucose CII-test Wako (Wako Pure Chemical Ind., Osaka, Japan). The absorbance at 505 nm was measured to determine the amount of the released D-glucose. Other glycosidase activities were determined using an appropriate para-nitrophenyl glycoside as substrate at the optimum pH of each enzyme. The reaction mixture contained the substrate ([…]) and the appropriate amount of enzyme. The reaction was stopped by the addition of Na2CO3 ([…]). The released para-nitrophenol was measured spectrometrically at 400 nm. All reactions were run in […].

α-D-glucosidase (rice) = α-D-glucosidase (rice) (Oryza sativa subsp. japonica, UniProt Q653V7); test: Glycosidase inhibition (Table 2 panel); type: biochemical
Sequence of α-D-glucosidase (rice) (Q653V7 34-885): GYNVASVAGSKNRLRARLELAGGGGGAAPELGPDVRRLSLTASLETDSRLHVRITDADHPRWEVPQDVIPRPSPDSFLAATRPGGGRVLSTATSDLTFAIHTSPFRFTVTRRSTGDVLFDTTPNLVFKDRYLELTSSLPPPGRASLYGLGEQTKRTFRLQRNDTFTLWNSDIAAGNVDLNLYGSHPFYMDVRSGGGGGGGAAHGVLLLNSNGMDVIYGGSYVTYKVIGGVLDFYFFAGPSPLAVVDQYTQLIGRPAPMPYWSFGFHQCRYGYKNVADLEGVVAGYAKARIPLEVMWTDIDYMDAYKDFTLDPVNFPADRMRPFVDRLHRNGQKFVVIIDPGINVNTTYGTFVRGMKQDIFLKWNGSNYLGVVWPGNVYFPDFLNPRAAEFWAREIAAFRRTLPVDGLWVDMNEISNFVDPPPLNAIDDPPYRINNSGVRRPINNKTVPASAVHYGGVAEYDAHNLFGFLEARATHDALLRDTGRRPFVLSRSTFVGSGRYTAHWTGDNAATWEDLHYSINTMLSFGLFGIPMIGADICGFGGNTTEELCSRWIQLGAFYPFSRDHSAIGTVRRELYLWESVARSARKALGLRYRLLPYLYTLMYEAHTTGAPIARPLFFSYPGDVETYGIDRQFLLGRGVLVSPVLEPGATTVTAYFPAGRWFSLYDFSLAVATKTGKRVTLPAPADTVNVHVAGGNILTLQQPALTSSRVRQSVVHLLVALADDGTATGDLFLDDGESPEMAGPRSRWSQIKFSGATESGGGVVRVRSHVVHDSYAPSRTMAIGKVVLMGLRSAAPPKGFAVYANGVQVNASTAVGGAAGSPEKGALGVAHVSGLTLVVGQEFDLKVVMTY
Description: as §3, §4

[4] = test system: T1, α-D-galactosidase (coffee beans); test: Glycosidase inhibition (Table 2 panel); type: biochemical
T1 construct: purchased Sigma-Aldrich; host or cells: coffee beans
Description: as §3, §4

[5] = test system: T2, α-D-mannosidase (Jack bean); test: Glycosidase inhibition (Table 2 panel); type: biochemical
T2 construct: purchased Sigma-Aldrich; host or cells: Jack bean
Description: as §3, §4

β-D-mannosidase (snail) = test: Glycosidase inhibition (Table 2 panel); type: biochemical
Description: as §3, §4

[6] = test system: T3, amyloglucosidase (A. niger); test: Glycosidase inhibition (Table 2 panel); type: biochemical
T3 construct: purchased Sigma-Aldrich
Description: as §3
as §4, with “For rat intestinal maltase, porcine kidney trehalase, and A. niger amyloglucosidase activities, the reaction mixture contained maltose (25 μM) and the appropriate amount of enzyme, and the incubations were performed for 10–30 min at 37 °C.” left out, “The absorbance at 505 nm was measured to determine the amount of the released D-glucose.” left out

[7] = test system: T4, β-D-glucuronidase (E. coli); test: Glycosidase inhibition (Table 2 panel); type: biochemical
T4 construct: purchased Sigma-Aldrich
Description: as §3
as §4, with “For rat intestinal maltase, porcine kidney trehalase, and A. niger amyloglucosidase activities, the reaction mixture contained maltose (25 μM) and the appropriate amount of enzyme, and the incubations were performed for 10–30 min at 37 °C.” left out, “The absorbance at 505 nm was measured to determine the amount of the released D-glucose.” left out

α-D-glucosidase (yeast) = target: T5, α-D-glucosidase (yeast) (Saccharomyces cerevisiae, UniProt P53341); test: Glycosidase inhibition (Table 2 panel); type: biochemical
T5 construct: purchased Sigma-Aldrich
T5 sequence (P53341 whole entry): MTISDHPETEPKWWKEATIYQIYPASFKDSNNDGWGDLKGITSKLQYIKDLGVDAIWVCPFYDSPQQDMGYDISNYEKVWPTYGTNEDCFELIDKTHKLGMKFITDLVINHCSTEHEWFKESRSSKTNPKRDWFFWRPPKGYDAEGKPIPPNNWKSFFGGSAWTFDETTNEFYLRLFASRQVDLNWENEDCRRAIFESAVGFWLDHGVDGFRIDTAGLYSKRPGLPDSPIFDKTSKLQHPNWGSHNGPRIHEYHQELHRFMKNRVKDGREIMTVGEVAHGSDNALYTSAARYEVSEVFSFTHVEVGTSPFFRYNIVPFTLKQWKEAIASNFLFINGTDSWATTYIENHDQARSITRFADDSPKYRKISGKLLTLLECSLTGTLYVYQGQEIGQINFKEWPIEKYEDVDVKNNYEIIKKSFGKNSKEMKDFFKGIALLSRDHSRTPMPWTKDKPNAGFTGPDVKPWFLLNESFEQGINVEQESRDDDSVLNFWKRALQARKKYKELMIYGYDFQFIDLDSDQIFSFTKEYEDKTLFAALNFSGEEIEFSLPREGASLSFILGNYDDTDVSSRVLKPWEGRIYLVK
Description: as §3
as §4, with “For rat intestinal maltase, porcine kidney trehalase, and A. niger amyloglucosidase activities, the reaction mixture contained maltose (25 μM) and the appropriate amount of enzyme, and the incubations were performed for 10–30 min at 37 °C.” left out, “The absorbance at 505 nm was measured to determine the amount of the released D-glucose.” left out

[8] = read-out: inhibition % α-D-Glucosidase Yeast

Molecule	inhibition at 25 µM (A431 (skin carcinoma); Homo sapiens, 72 h) [%]	inhibition at 25 µM ([1]; Homo sapiens, 72 h) [%]	inhibition at 25 µM ([2]; Homo sapiens, 72 h) [%]	inhibition at 25 µM ([3]; Homo sapiens, 72 h) [%]	inhibition at 25 µM (H460 (lung carcinoma); Homo sapiens, 72 h) [%]	inhibition % β-D-Glucosidase Almond (β-D-glucosidase (almond); at 100 μM)	inhibition % β-D-Glucosidase Almond (β-D-glucosidase (almond); at 1000 μM)	inhibition % α-D-Galactosidase Coffee Beans ([4]; at 100 μM)	inhibition % α-D-Galactosidase Coffee Beans ([4]; at 1000 μM)	inhibition % α-D-Mannosidase Jack Bean ([5]; at 100 μM)	inhibition % α-D-Mannosidase Jack Bean ([5]; at 1000 μM)	inhibition % β-D-Mannosidase Snail (β-D-mannosidase (snail); at 100 μM)	inhibition % β-D-Mannosidase Snail (β-D-mannosidase (snail); at 1000 μM)	inhibition % Amyloglucosidase A. niger ([6]; at 100 μM)	inhibition % Amyloglucosidase A. niger ([6]; at 1000 μM)	inhibition % β-D-Glucuronidase E. coli ([7]; at 100 μM)	inhibition % β-D-Glucuronidase E. coli ([7]; at 1000 μM)	DOSE SCREEN percentage (%) cell growth inhibition A431 Skin (A431 (skin carcinoma); 72 h)	DOSE SCREEN percentage (%) cell growth inhibition HT29 Colon ([1]; 72 h)	DOSE SCREEN percentage (%) cell growth inhibition MIA-Pa-Ca2 Pancreatic ([2]; 72 h)	further results
OC[C@H](O)[C@@H]1[C@H](O)[C@H](O)CN1Cc1cccc(B(O)O)c1 [meta 4, N-(3-Methylphenylboronic acid)-1,4-dideoxy-1,4-imino-L-gulitol]	6 ± 1	< 0	16 ± 5	18 ± 5	7 ± 1	^cNI ^d(0.6%)	^aNI ^b(43%)	^cNI ^d(1.1%)	^aNI ^b(3.7%)	^cNI ^d(0%)	^aNI ^b(0%)	^cNI ^d(0%)	^aNI ^b(0%)	^cNI ^d(6.6%)	^aNI ^b(3.6%)	^cNI ^d(3.5%)	^aNI ^b(20.6%)				GI50 (A431 (skin carcinoma); Homo sapiens, A-431, 72 h): > 50 µM; GI50 ([1]; Homo sapiens, HT-29, 72 h): > 50 µM; GI50 ([2]; Homo sapiens, MIA PaCa-2, 72 h): > 50 µM; GI50 ([3]; Homo sapiens, A2780, 72 h): > 50 µM; GI50 (H460 (lung carcinoma); Homo sapiens, NCI-H460, 72 h): > 50 µM; inhibition at 100 µM (α-D-glucosidase (rice); at 100 μM): 8%; IC50 (α-D-glucosidase (rice); listed as of the 1000 μM series): 106 µM; inhibition at 100 µM (α-D-glucosidase (yeast); [8]): 8.1%; inhibition at 1000 µM (α-D-glucosidase (yeast); [8]): 4.9%
N-(3-Hydroxyphenyl)-1,4-dideoxy-1,4-imino-L-gulitol [meta 7]						^cNI ^d(0%)	^aNI ^b(9.6%)	^cNI ^d(1.8%)	^aNI ^b(1.7%)	^cNI ^d(0%)	^aNI ^b(0%)	^cNI ^d(0%)	^aNI ^b(0%)	^cNI ^d(5.1%)	^aNI ^b(2.1%)	^cNI ^d(0.5%)	^aNI ^b(7.5%)	56 ± 6%	29 ± 1%	39 ± 2%	GI50 (A431 (skin carcinoma); 72 h): 17 ± 8.5 µM; GI50 ([1]; 72 h): 50 µM; GI50 ([2]; 72 h): 51 ± 1.5 µM; DOSE SCREEN percentage (%) cell growth inhibition A2780 Ovarian ([3]; 72 h): 48 ± 7%; GI50 ([3]; 72 h): 30 ± 20 µM; DOSE SCREEN percentage (%) cell growth inhibition H460 Lung (H460 (lung carcinoma); 72 h): 37 ± 3%; GI50 (H460 (lung carcinoma); 72 h): 47 ± 7 µM; inhibition % α-D-Glucosidase Rice (α-D-glucosidase (rice); at 100 μM): ^cNI ^d(0%); inhibition % α-D-Glucosidase Rice (α-D-glucosidase (rice); at 1000 μM): ^aNI ^b(5.0%); inhibition % α-D-Glucosidase Yeast (α-D-glucosidase (yeast); at 100 μM): ^cNI ^d(3.4%); inhibition % α-D-Glucosidase Yeast (α-D-glucosidase (yeast); at 1000 μM): ^aNI ^b(4.3%)
N[C@@H](Cc1ccc(B(O)O)cc1)C(=O)O [BPA, 4-borono-L-phenylalanine, reference compound]	4	14	3	4	7	^cNI ^d(0%)		^cNI ^d(4.3%)		^cNI ^d(1.1%)		^cNI ^d(2.1%)		^cNI ^d(0%)		^cNI ^d(0.5%)					
Borocaptate sodium [BSH, reference compound]							^aNI ^b(0%)		^aNI ^b(12.3%)		^aNI ^b(7.9%)		^aNI ^b(19.2%)		^aNI ^b(0%)		^aNI ^b(6%)	* <0%	* 3 ± 2%	* 2 ± 6%	DOSE SCREEN percentage (%) cell growth inhibition A2780 Ovarian ([3]; 72 h): * 2 ± 5%; DOSE SCREEN percentage (%) cell growth inhibition H460 Lung (H460 (lung carcinoma); 72 h): * 8 ± 2%; inhibition % α-D-Glucosidase Rice (α-D-glucosidase (rice); at 1000 μM): ^aNI ^b(0%); inhibition % α-D-Glucosidase Yeast (α-D-glucosidase (yeast); at 1000 μM): ^aNI ^b(6.9%)
